We go through one molecule from patent publication US20260273059A1, “METHODS OF EVADING IMMUNE REJECTION” (William Marsh Rice University, priority 2023, published 2026).

The experiment has as its system cytokine producing, kill switch inducible cell line. Briefly: Small molecule inducible kill switch. Format: cell-based. The settings on record: 100 nM. An excerpt:
Cell engineering for cells equipped with a small molecule inducible kill switch consist of a base epithelial cell line and a highly modular PiggyBAC transposon system. This vector system is composed of a strong promotor that is constitutively expressed, a kozak translation initiation sequence, the gene of interest (any cytokine, chemokine, or other protein), an internal ribosome entry site, a kill switch gene, a puromycin resistance gene and a poly-A tail in between two inverted terminal repeat sequences. Variation to this system requires only gene of interest swapping and allows for quick and easy “plug and play” cell engineering. The kill switch can be added to enhance the safety of cells engineered to produce the following cytokines: IL-1, IL-1a, IL-1b, IL-1RA, IL-2, IL-4, IL-5, IL-6, IL-7, IL-8, IL-9, IL-10, IL-11, IL-12, IL-12a, IL-12b, IL-13, IL-14, IL-15, IL-16, IL-17, IL-20, IFN-α, IFN-b, IFN-c, TNF-α, TNF-b, TGF-b, CCL-1, CCL-2, CCL-3, CCL-4, CCL-5, CCL-6, CCL-7, CCL-8, CCL-9, CCL-10, CCL-11, CCL-12, CCL-13, CCL-14, CCL-15, CCL-16, CCL-18, CCL-19, CCL-20, CCL-21, CCL-22, CCL-23, CCL-24, CCL-25, CCL-26, CCL-27, CCL-28, CXCL1, CXCL2, CXCL3, CXCL4, CXCL5, CXCL6, CXCL7, CXCL8, CXCL9, CXCL10, CXCL11, CXCL12, CXCL13, CXCL14, CXCL15, CXCL16, CXCL17. […]

For `CC[C@H](C(=O)N1CCCC[C@H]1C(=O)O[C@H](CCc1ccc(OC)c(OC)c1)c1cccc(OCC(=O)NCCNC(=O)COc2cccc([C@@H](CCc3ccc(OC)c(OC)c3)OC(=O)[C@@H]3CCCCN3C(=O)[C@@H](CC)c3cc(OC)c(OC)c(OC)c3)c2)c1)c1cc(OC)c(OC)c(OC)c1` [AP1903, rimiducid], the “time in which the kill switch inducible cell line responds” value is given as “less than 24 hours”.
